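Cells were grown in 96-well plates and exposed to each compound for 48 hours at five concentrations; endpoints were interpolated linearly between bracketing concentrations, or set to the highest concentration if not reached. GI50 is the concentration that inhibits growth by half.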 Active and inactive are the calls of the source. No stated cut-off is given here; in the data, active = GI50 up to about 1.1 µM and inactive = higher.
Legend:
Test in all cases: NCI tumour cell line growth inhibition, 48 h
SF-539 = test system: SF-539
786-0 = test system: 786-0
DU-145 = test system: DU-145
OVCAR-4 = test system: OVCAR-4
MCF7 = test system: MCF7
HOP-92 = test system: HOP-92
CAKI-1 = test system: CAKI-1
UACC-62 = test system: UACC-62
HCC 2998 = test system: HCC 2998
A549 = test system: A549
UACC-257 = test system: UACC-257
CCRF-CEM = test system: CCRF-CEM
OVCAR-8 = test system: OVCAR-8
K562 = test system: K562
UO-31 = test system: UO-31
NCI-H460 = test system: NCI-H460
SR = test system: SR
MDA-N = test system: MDA-N
U-251 = test system: U-251
SK-MEL-28 = test system: SK-MEL-28

| Compound | GI50 (SF-539) | GI50 (786-0) | GI50 (DU-145) | GI50 (OVCAR-4) | GI50 (MCF7) | GI50 (HOP-92) | GI50 (CAKI-1) | GI50 (UACC-62) | GI50 (HCC 2998) | GI50 (A549) | GI50 (UACC-257) | GI50 (CCRF-CEM) | GI50 (OVCAR-8) | GI50 (K562) | GI50 (UO-31) | GI50 (NCI-H460) | GI50 (SR) | GI50 (MDA-N) | GI50 (U-251) | GI50 (SK-MEL-28) |
| --- | --- | --- | --- | --- | --- | --- | --- | --- | --- | --- | --- | --- | --- | --- | --- | --- | --- | --- | --- | --- |
| Cc1nc(N)nc(N)c1N1CCN(Cc2ccccc2)CC1 | 27.2 µM (inactive) | 4.73 µM (inactive) | 37.2 µM (inactive) | > 100 µM (inactive) | 27.1 µM (inactive) | 35.3 µM (inactive) | 37.1 µM (inactive) | 30.5 µM (inactive) | 25.2 µM (inactive) | 3.56 µM (inactive) | 9.64 µM (inactive) | 16.5 µM (inactive) | 14.9 µM (inactive) | 6.44 µM (inactive) | 45.4 µM (inactive) | 5.87 µM (inactive) | 36.6 µM (inactive) | 21.9 µM (inactive) | 48.8 µM (inactive) | > 78.9 µM (inactive) |
| CC(=O)N(C(C)=O)c1cc2c3c(c1)CCCN3CCC2 | > 10 µM (inactive) | > 10 µM (inactive) | > 10 µM (inactive) | > 10 µM (inactive) | > 10 µM (inactive) | > 10 µM (inactive) | > 10 µM (inactive) | > 10 µM (inactive) | > 10 µM (inactive) | > 10 µM (inactive) | > 10 µM (inactive) | > 10 µM (inactive) | > 10 µM (inactive) | > 10 µM (inactive) |  | > 10 µM (inactive) | > 10 µM (inactive) | > 10 µM (inactive) | > 10 µM (inactive) | > 10 µM (inactive) |
| O=C(Nc1c(Cl)cccc1Cl)c1c(Cl)c(Cl)c(Cl)c(Cl)c1-c1nc2ccccc2[nH]1 | 0.535 µM (active) | 36.4 µM (inactive) | 62.2 µM (inactive) | 43.6 µM (inactive) | 34.6 µM (inactive) | 29.9 µM (inactive) | 62.7 µM (inactive) | 25.4 µM (inactive) | 38.5 µM (inactive) | 0.601 µM (active) | > 100 µM (inactive) | > 100 µM (inactive) | 33 µM (inactive) | 59.3 µM (inactive) | 80.5 µM (inactive) | > 100 µM (inactive) | 27.7 µM (inactive) | 36 µM (inactive) |  | 70.6 µM (inactive) |
| CCN(CC)CCSc1c2cc(OC)ccc2nc2ccc(OC)cc12 | 2.45 µM (inactive) | 1.85 µM (inactive) | 2.05 µM (inactive) | 6.03 µM (inactive) | 2.51 µM (inactive) | 2.19 µM (inactive) | 7.53 µM (inactive) | 14.3 µM (inactive) | 13.5 µM (inactive) | 16.1 µM (inactive) | 4.35 µM (inactive) | 2.86 µM (inactive) | 3.12 µM (inactive) |  | 2.37 µM (inactive) | 9.75 µM (inactive) | 2.43 µM (inactive) | 4.39 µM (inactive) | 7.94 µM (inactive) | 10.3 µM (inactive) |
| Cn1c(=O)c2[nH]c(-n3nc(-c4ccccc4)cc3N)nc2n(C)c1=O | 5.08 µM (inactive) | 6.18 µM (inactive) | 7.93 µM (inactive) | 2.91 µM (inactive) | 13.8 µM (inactive) | 6.46 µM (inactive) | 2.12 µM (inactive) | 6.37 µM (inactive) | 8.67 µM (inactive) | 5.78 µM (inactive) |  | 2.64 µM (inactive) | 4.85 µM (inactive) | 6.46 µM (inactive) | 6.89 µM (inactive) | 3.3 µM (inactive) | 4.31 µM (inactive) | 11.7 µM (inactive) | 6.78 µM (inactive) | 11 µM (inactive) |
| OC1C2CCCCN2C[C@@H](O)[C@H]1O (stereo not given in full) | > 100 µM (inactive) | > 100 µM (inactive) | > 100 µM (inactive) | > 100 µM (inactive) | > 100 µM (inactive) | > 100 µM (inactive) | > 100 µM (inactive) | > 100 µM (inactive) | > 100 µM (inactive) | > 100 µM (inactive) | > 100 µM (inactive) | > 100 µM (inactive) | > 100 µM (inactive) | > 100 µM (inactive) | > 100 µM (inactive) | > 100 µM (inactive) | > 100 µM (inactive) | > 100 µM (inactive) | > 100 µM (inactive) | > 100 µM (inactive) |
| c1ccc(C/C(=N\Nc2nc3ccccc3o2)c2ccccn2)cc1 | 0.114 µM (active) | < 0.0193 µM (active) | 0.376 µM (active) | < 0.01 µM (active) | < 0.01 µM (active) | 0.0281 µM (active) | 0.0879 µM (active) | 0.387 µM (active) | < 0.0163 µM (active) | 0.437 µM (active) | 0.0775 µM (active) | < 0.0122 µM (active) | 0.0321 µM (active) | 0.027 µM (active) | 0.09 µM (active) | 0.0931 µM (active) | 0.0424 µM (active) | 0.355 µM (active) | 0.198 µM (active) |  |

— ChEMBL document CHEMBL1201862, “PubChem BioAssay data set” (2004)
